According to ChEMBL document CHEMBL1155394, “SARS-CoV 3CLpro inhibitory effects of quinone-methide triterpenes from Tripterygium regelii” (Bioorg Med Chem Lett, 2010):

What was measured:
[1] = biological target: T1, Replicase polyprotein 1ab (Severe acute respiratory syndrome-related coronavirus, UniProt P0C6X7); assay: Inhibition of 3C-like protease of SARS coronavirus assessed as concentration of FRET peptide for 60 mins by dixon plot
[2] = biological target: T1, Replicase polyprotein 1ab; assay: Inhibition of 3C-like protease of SARS coronavirus assessed as concentration of FRET peptide for 60 mins

Row | SMILES | Ki [1] [µM] | IC50 [2] [µM]
1 | CC1=C(O)C(=O)C=C2C1=CC=C1[C@@]2(C)CC[C@@]2(C)[C@@H]3C[C@@H](C)C(=O)C[C@]3(C)CC[C@]12C [TINGENONE] | 4 | 9.9
2 | Cc1c(O)c(O)cc2c1CC=C1[C@@]2(C)CC[C@@]2(C)[C@@H]3C[C@](C)(C(=O)O)CC[C@]3(C)CC[C@]12C [DIHYDROCELASTROL] | – | 21.7
3 | COC(=O)[C@]1(C)CC[C@]2(C)CC[C@]3(C)C4=CC=C5C(=CC(=O)C(O)=C5C)[C@]4(C)CC[C@@]3(C)[C@@H]2C1 [PRISTIMERIN] | 3.1 | 5.5
4 | CC1=C(O)C(=O)C=C2C1=CC=C1[C@@]2(C)CC[C@@]2(C)[C@@H]3C[C@](C)(C(=O)O)CC[C@]3(C)CC[C@]12C [CELASTROL] | 4.2 | 10.3
5 | COc1cc(/C=C/C(=O)CC(=O)/C=C/c2ccc(O)c(OC)c2)ccc1O [CURCUMIN] | – | 23.5
